Test results: publication PMC3857224, “Inhibition of DNA Glycosylases via Small Molecule Purine Analogs” (PLoS ONE, 2013)

Legend:
[1] = tested on: NEIL1-depleted cells; parameters: method as in PMID 21131780; settings: minimally toxic doses, siRNA NEIL1 depletion; cited from earlier work
[2] = biological target: T1, NEIL1 (Homo sapiens, UniProt Q96FI4); experiment: gel-based incision assay of oligodeoxynucleotides containing site-specific base lesions; format: biochemical; settings: polyacrylamide gel, reaction quenched at 20 min
T1 construct: made in house
Method: The 384-well fluorogenic assay was carried out in a 20 µL reaction mixture in 20 mM Tris-HCl pH 8.0, 100 mM KCl, and 0.1% BSA, with 5 nM active enzyme and 50 nM substrate. Possible inhibitors were incubated with the enzyme for at least 5 min at room temperature in a black, low-volume 384-well plate before addition of an equal volume of substrate to start the reaction. The plates were spun for 30 s at 1000 rcf to remove bubbles. The reactions were incubated at 37°C and fluorescence data collected on an Infinite M200 (Tecan, Mannedorf, Switzerland) equipped with standard optics (excitation filter 525 nm, and emission filter 598 nm). For the gel-based assay, reactions were initiated as described for the fluorogenic assay, but quenched with 20 µL 95% formamide at 20 min. The products were separated by electrophoresis through a 15% polyacrylamide gel containing 8 M urea and visualized by a Typhoon scanner (GE Life Sciences, Piscataway, NJ). The fraction of cleaved product was measured using ImageQuant software and analyzed using GraphPad Prism 6. […]

[3] = biological target: T1, NEIL1; experiment: qHTS fluorogenic glycosylase/AP lyase assay, 1536-well, Sp/Gh substrate; format: biochemical; settings: 5 concentrations
Method: The fluorogenic assay was miniaturized to 4 µL in 1536-well black solid plates by optimization of the enzyme and Sp/Gh substrate concentrations. Briefly, 3 µL of 25 nM NEIL1 were dispensed into each well of a 1536-well plate (except buffer in columns 3 and 4 as a negative control). Compounds (DMSO solutions) and control (DMSO only) (23 nL) were transferred to the plate via Kalypsys pintool. The plate was incubated for 15 min at room temperature, and then 1 µL of the Sp/Gh-containing DNA substrate (75 nM final concentration) was added to start the reaction. The plate was immediately transferred into the ViewLux reader for the kinetic fluorescence read. Initial rate data were normalized against uninhibited and no-enzyme controls and the resulting percent activities as a function of compound concentration were fitted using the Hill equation.
Having established the general principle for a glycosylase screening assay, further assay development was undertaken to enable HTS in which the reaction volumes were reduced by 5-fold to a total of 4 µL. Initially, the library of pharmacologically active compounds (LOPAC^1280) was screened for inhibitors of NEIL1 as a determination of the feasibility of this high-throughput method. […] All compounds were screened at 5 different concentrations that allowed for the initial estimation of inhibitory potency (IC50) values, as well as an evaluation of the shape of the response curves. In addition to the anticipated inhibitors (known DNA intercalators, such as ellipticine (IC50 = 2 µM)) and other small molecules that have been previously established to be promiscuous inhibitors (such as aurintricarboxylic acid (IC50<1 µM)), one interesting hit from this screen was CGP-74514A (NCGC ID is NCGC00015229) (Figure 5A). CGP-74514A is a known small molecule inhibitor of Cdk1 in which the structure of this molecule is based on a purine ring backbone.

[4] = biological target: T1, NEIL1; experiment: NEIL1 excision of FapyAde and FapyGua from γ-irradiated calf thymus DNA by GC-MS/MS; format: biochemical; settings: 10 µL of 2 mM inhibitor in DMSO, 1 h 37°C
Method: The enzymatic activity of NEIL1 was measured using gas chromatography/isotope-dilution tandem mass spectrometry (GC-MS/MS) and calf thymus DNA samples γ-irradiated at 20 Gy as described, [30]. Aliquots of FapyAde-^13C,^15N2 and FapyGua-^13C,^15N2 were added as internal standards to 50 µg of DNA samples. After drying in a SpeedVac, DNA samples were dissolved in 50 µL of an incubation buffer consisting of 50 mM phosphate buffer (pH 7.4), 100 mM KCl, 1 mM EDTA, and 0.1 mM dithiothreitol, and then incubated with 2 µg NEIL1 for 1 h at 37°C without any inhibitor, DMSO alone, or with 10 µL of an inhibitor solution in DMSO (2 mM). After incubation, 150 µL of cold ethanol was added. The samples were kept at −20°C for 1 h and then centrifuged with 14,000 g for 30 min at 4°C. The supernatant fractions were separated and ethanol removed in a SpeedVac under vacuum. The samples were then frozen in liquid nitrogen and lyophilized overnight. To fully remove DMSO that would interfere with GC-MS/MS analysis, 500 µL water were added to the samples followed by lyophilization overnight. This procedure was repeated twice. Dried samples were derivatized and analyzed by GC-MS/MS as described, [30]. For each data point, three independently prepared samples were used.
Although Gh and Sp are excellent substrates for NEIL1, these are likely not to be the biologically relevant substrates. Thus, to determine if the compounds that were identified above were effective in the inhibition of NEIL1 against its biologically relevant substrates FapyAde and FapyGua, [6], γ-irradiated calf thymus DNA was used as a substrate. The excision by NEIL1 of these substrates from DNA was measured by GC-MS/MS with isotope-dilution. Figure 8 illustrates the excision of FapyAde and FapyGua by NEIL1 from γ-irradiated calf thymus DNA in the absence or presence of inhibitors. […] Some inhibition by DMSO alone was also observed when compared with excision by NEIL1 alone (p = 0.01). However, when compared to DMSO, the inhibitions by P2, P6, P7 and P8 were highly significant (p<0.005). […] A p-value<0.05 was assumed to correspond to statistical significance.

T1 sequence (Q96FI4 whole entry): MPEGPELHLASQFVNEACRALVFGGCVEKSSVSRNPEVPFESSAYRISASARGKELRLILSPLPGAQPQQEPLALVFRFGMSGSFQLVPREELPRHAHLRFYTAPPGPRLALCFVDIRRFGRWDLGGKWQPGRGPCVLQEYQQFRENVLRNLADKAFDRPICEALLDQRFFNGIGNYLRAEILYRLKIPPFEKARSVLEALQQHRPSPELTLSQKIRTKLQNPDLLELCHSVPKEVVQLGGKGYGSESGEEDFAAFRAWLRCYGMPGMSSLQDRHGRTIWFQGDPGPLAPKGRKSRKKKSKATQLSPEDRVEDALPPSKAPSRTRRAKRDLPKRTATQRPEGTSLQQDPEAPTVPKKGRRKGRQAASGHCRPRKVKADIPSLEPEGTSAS

IC50 [2]	IC50 [3]	inhibition of NEIL1 excision of FapyAde and FapyGua [4]	SMILES	increased cytotoxicity in NEIL1-depleted cells [1]
> 50 µM	3.2 µM		O=C(OCC1OC(n2cnc3c(N(C(=O)c4ccccc4)C(=O)c4ccccc4)ncnc32)C(O)C1F)c1ccccc1 (stereo not shown) [Purine P3]	
> 20 µM	11.2 µM		C=CC(=O)N1CCCC(Nc2nc(Nc3ccc(N(C)C(=O)CC)cc3C)nc3nc[nH]c23)C1 (stereo not shown) [Purine P12]	
> 50 µM	12.6 µM		CC(C)n1cnc2c(N(C)c3ccccc3)nc(N(CCN(C)C)Cc3ccccc3)nc21 [Purine P13]	
> 50 µM	12.6 µM		Nc1ncnc2c1ncn2[C@@H]1O[C@H](CNCc2cccc(C#Cc3ccccc3)c2)[C@@H](O)[C@H]1O [Purine P14]	
> 50 µM	14.1 µM		CC(C)CNc1ncnc2c1ncn2[C@H]1CN(Cc2ccc(-c3ccccc3)cc2)C[C@@H](CO)O1 [Purine P15]	
> 50 µM	22.4 µM		Cc1ccc(C(=O)Nc2cccc(C(F)(F)F)c2)cc1Nc1ncnc2nc[nH]c12 [Purine P20]	
> 50 µM	25.1 µM		Cc1ccc(NC(=O)C2CCCN(c3ncnc4c3nc3n4CCCCC3)C2)cc1Cl (stereo not shown) [Purine P22]	
> 20 µM	31.6 µM		Cc1cc(C)c(CN2CCN(C(=O)Cn3cnc4c(NCc5ccccc5)ncnc43)CC2)c(C)c1 [Purine P25]	
> 20 µM	31.6 µM		c1ccc(COc2ccc(Nc3ncnc4nc[nH]c34)cc2)cc1 [Purine P26]	
> 50 µM	0.6 µM		CC(=O)c1ccc(N2CCN(C(=O)C3CCCN(c4ncnc5c4nc4n5CCCCC4)C3)CC2)cc1 (stereo not shown) [Purine P27]	
> 50 µM	0.9 µM		CC(=O)OC[C@@H]1CN(Cc2ccccc2)C[C@H](n2cnc3c(NCc4ccc(F)cc4)ncnc32)O1 [Purine P29]	
19.3 µM	7.1 µM		CC(C)[C@H](CO)N(Cc1cccc(F)c1)c1nc(Nc2cccc(Cl)c2)c2ncn(C(C)C)c2n1 [Purine P32]	
> 50 µM	7.9 µM		CC(C)n1cnc2c(NCc3ccccc3)nc(NCc3ccccc3)nc21 [Purine P33]	
> 50 µM	10 µM		COc1cccc(-c2cc(CNC(=O)[C@H]3O[C@@H](n4cnc5c(N)ncnc54)[C@H](O)[C@@H]3O)no2)c1 [Purine P34]	
> 50 µM	11.2 µM		COc1ccc2[nH]cc(CCNC(=O)/C=C/[C@H]3O[C@@H](n4cnc5c(NC(=O)c6ccccc6)ncnc54)[C@H](O)[C@@H]3O)c2c1 [Purine P35]	
> 50 µM	0.3 µM		OC[C@@H]1CN(Cc2ccccc2)C[C@H](n2cnc3c(N4CCN(c5ccccc5)CC4)ncnc32)O1 [Purine P38]	
> 50 µM	0.6 µM		Cc1cccc(OCCSc2nc3c([nH]2)c(=N)ncn3Cc2ccccc2)c1 [Purine P39]	
> 50 µM	0.6 µM		COc1ccc(CNc2nc(NCc3ccc(OC)cc3)c3[nH]cnc3n2)cc1 [Purine P40]	
	< 1 µM		O=C(O)C1=CC(=C(c2ccc(O)c(C(=O)O)c2)c2ccc(O)c(C(=O)O)c2)C=CC1=O [aurintricarboxylic acid, reference compound]	

The next lines start with the compound.

SMILES	IC50 [2]	IC50 [3]	inhibition of NEIL1 excision of FapyAde and FapyGua [4]	increased cytotoxicity in NEIL1-depleted cells [1]
Nc1nc(N)c2nc(CNc3ccc(C(=O)N[C@@H](CCC(=O)O)C(=O)O)cc3)cnc2n1 [AMT, aminopterin]				7 fold
CN(Cc1cnc2nc(N)nc(N)c2n1)c1ccc(C(=O)N[C@@H](CCC(=O)O)C(=O)O)cc1 [MTX, methotrexate]				10 fold
Cc1ccc2nc(N)[nH]c(=O)c2c1Sc1ccncc1 [NOL, nolatrexed]				5 fold
N#Cc1nc(Nc2cc(F)cc(F)c2)c2ncn(CCN3CCCC3)c2n1 [Purine P1]	> 50 µM	3.6 µM		
N#Cc1nc(Nc2cc(F)cc(F)c2)c2ncn(CCCN3CCCC3)c2n1 [Purine P5]	> 50 µM	7.9 µM		
CCNc1nc(C#N)nc2c1ncn2-c1cccc(Cl)c1 [Purine P10]	> 50 µM	10 µM		
CN(C)CCNc1ncnc2c1ncn2[C@H]1CN(Cc2ccc(-c3ccccc3)cc2)C[C@@H](CO)O1 [Purine P16]	> 50 µM	15.8 µM		
O=C(C1CCCN(c2ncnc3c2nc2n3CCCCC2)C1)N1CCN(c2cccc(Cl)c2)CC1 (stereo not shown) [Purine P17]	> 50 µM	15.8 µM		
Cc1cc(/C=C/C#N)cc(C)c1Nc1nc(Nc2ccc3n[nH]nc3c2)c2[nH]cnc2n1 [Purine P18]	> 50 µM	17.8 µM		
O=C(C1CCN(c2ncnc3c2nc2n3CCCCC2)CC1)N1CCN(c2cccc(Cl)c2)CC1 [Purine P19]	> 20 µM	20 µM	no inhibition	
CCc1cccc(NC(=O)C2CCCN(c3ncnc4c3nc3n4CCCCC3)C2)c1 (stereo not shown) [Purine P28]	> 20 µM	0.7 µM		
CNC(=O)[C@H]1O[C@H](n2cnc3c(NCc4cccc(I)c4)ncnc32)[C@@H](O)[C@@H]1O [Purine P30]	> 50 µM	1.8 µM		
Cc1ccccc1CN1CCC(CNC(=O)C2CCCN(c3ncnc4c3nc3n4CCCCC3)C2)CC1 (stereo not shown) [Purine P31]	> 50 µM	7.1 µM		
Nc1nc(N)c2[nH]c(-c3ccccc3)nc2n1 [Purine P36]	> 50 µM	15.5 µM		
COc1ccccc1CNC(=O)C1CCN(c2ncnc3c2nc2n3CCCCC2)CC1 [Purine P37]	> 50 µM	10 µM		
O=C(C1CCCN(c2ncnc3c2nc2n3CCCCC2)C1)N1CCN(c2ccc(F)cc2)CC1 (stereo not shown) [Purine P41]	> 50 µM	0.8 µM		
CCOCCCNc1ncnc2c1nc1n2CCCC1 [Purine P42]	> 50 µM	0.8 µM		
Cc1nc2ccc(CN(C)c3ccc(C(=O)N[C@@H](CCC(=O)O)C(=O)O)s3)cc2c(=O)[nH]1 [RTX, raltitrexed]				9 fold
